In PMC12064818, “A general assay platform to study protein pharmacology using ligand-dependent structural dynamics” (Nature Communications, 2025):

Legend:
[1] = target: FLuc-C-NLuc (firefly luciferase) (Photinus pyralis, UniProt P08659, form not given/L550V); assay: SDR assay, FLuc-C-NLuc; details: - ATP
P. pyralis FLuc = P. pyralis FLuc (Photinus pyralis, UniProt P08659); assay: FLuc enzymatic luminescence assay, P. pyralis FLuc; assay type: biochemical; details: FLuc enzymatic assay; for Efficacy (%) FLuc E: Clade S follow-up; for IC50: read-out: IC50 or SDR50 (mM) FLuc E
Sequence of P. pyralis FLuc (P08659 whole entry): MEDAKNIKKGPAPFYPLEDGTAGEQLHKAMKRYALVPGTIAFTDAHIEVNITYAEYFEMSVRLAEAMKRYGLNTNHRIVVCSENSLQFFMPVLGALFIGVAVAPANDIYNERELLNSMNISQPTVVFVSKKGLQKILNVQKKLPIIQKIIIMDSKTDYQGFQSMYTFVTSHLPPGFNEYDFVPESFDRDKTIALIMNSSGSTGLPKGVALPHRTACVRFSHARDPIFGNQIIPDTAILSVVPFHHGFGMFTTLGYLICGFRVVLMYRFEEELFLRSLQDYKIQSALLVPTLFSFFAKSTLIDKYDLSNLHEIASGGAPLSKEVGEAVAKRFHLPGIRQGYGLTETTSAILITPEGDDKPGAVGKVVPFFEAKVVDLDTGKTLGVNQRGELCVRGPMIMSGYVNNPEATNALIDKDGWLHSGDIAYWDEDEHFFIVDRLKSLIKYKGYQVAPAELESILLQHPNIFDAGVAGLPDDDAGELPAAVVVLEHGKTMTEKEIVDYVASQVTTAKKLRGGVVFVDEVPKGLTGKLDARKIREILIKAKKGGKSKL
In short: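 Runs with and without 10 µM ATP: compounds were pre-incubated with FLuc (1–10 nM, PBS pH 7.4) at ambient temperature, light-protected, for 30–60 min. Luminescence was imaged 5 min after adding 10 µM D-luciferin (final). Inhibition was scaled between DMSO neutral and no-enzyme controls.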

[2] = target: FLuc-C-HiBiT (firefly luciferase) (Photinus pyralis, UniProt P08659, form not given/L550V); assay: SDR assay, FLuc-C-HiBiT; details: SDR max. response, clade S
Sequence of FLuc-C-HiBiT (firefly luciferase) (P08659 2-550 L550V, form open): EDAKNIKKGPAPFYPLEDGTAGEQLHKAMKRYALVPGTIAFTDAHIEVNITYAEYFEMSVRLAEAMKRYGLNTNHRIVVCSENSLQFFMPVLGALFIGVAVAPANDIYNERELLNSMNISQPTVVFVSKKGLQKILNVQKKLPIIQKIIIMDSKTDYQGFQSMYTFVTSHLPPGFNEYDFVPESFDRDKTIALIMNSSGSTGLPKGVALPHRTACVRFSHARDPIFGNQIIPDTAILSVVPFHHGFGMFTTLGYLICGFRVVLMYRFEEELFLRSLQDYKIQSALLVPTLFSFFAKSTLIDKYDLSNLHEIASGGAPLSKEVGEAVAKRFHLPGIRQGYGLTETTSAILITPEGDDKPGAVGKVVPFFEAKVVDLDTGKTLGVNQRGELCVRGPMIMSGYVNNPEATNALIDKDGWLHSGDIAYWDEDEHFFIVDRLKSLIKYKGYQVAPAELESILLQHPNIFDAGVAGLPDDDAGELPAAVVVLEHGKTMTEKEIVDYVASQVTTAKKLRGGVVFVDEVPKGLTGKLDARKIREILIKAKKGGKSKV

NLuc = target: T1, NLuc (Oplophorus gracilirostris, UniProt Q9GV45, A31E/A60N/A81I/F95D/I117V/K70R/L54V/L99Q/M102K/N193R/P142E/Q151K/Q38R/Q45L/V71I/Y165I); assay type: biochemical; details: - ATP
T1 construct: His tag (inferred from IMAC purification); made in house; host or cells: E. coli
T1 sequence (Q9GV45 other isoform, or with tags, fused parts or gaps with the stated changes): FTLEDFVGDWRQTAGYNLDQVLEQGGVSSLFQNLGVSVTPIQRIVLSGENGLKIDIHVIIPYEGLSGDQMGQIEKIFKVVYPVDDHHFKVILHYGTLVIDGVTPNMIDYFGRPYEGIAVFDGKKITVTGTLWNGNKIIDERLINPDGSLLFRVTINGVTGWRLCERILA
Description: Compounds and controls were added to plates as described in Supplementary Data 8. Nano-Glo luciferase assay reagent (Promega) was prepared fresh according to manufacturer’s protocol, filtered and added at 3 μL per well across assay plates with a BioRaptr2 dispenser. Enzyme was incubated with Nano-Glo reagent for 10 min and NLuc luminescence was read on a ViewLux CCD imager (PerkinElmer), with 1 s exposure with medium gain and 2x binning. Data were normalized to average no enzyme control as 100% enzyme inhibition and average DMSO neutral control. See Supplementary Table 4 for additional details.
Supplementary Table 4. […]
Sequence Param eter Value Description […]
5 Detector ViewLux Read plate lum inescence (Exposure = 1- 10 sec; Gain = Medium -high; Speed = Slow;
Dispensing solution was diluted in 1X PBS, pH 7.4.
NanoLuc luciferase (NLuc) enzym atic lum inescence assay […]
Nano-Glo luciferase assay reagent (Prom ega, Cat # N1120) prepared according to m anufacturer’s recom m endations,
4 com ponents stored at -30 °C until use, and reagent prepared fresh for each assay.
syringe filter prior to dispense.

Sequence of FLuc-C-NLuc (firefly luciferase) (P08659 2-550 L550V, form open): as the sequence (P08659 2-550 L550V, form open) above

SMILES	Efficacy (%) FLuc-C-NLuc SDR (-ATP) [1] [%]	pIC50 or pSDR50 FLuc E (P. pyralis FLuc)	Efficacy (%) FLuc E (P. pyralis FLuc) [%]	IC50 (P. pyralis FLuc) [mM]	% Activity (max response, + ATP) [2] [%]	% Activity (max response, - ATP) [2] [%]	Efficacy (%) NLuc (- ATP) (NLuc) [%]
O=C(NC1CCCCCCC1)C1CCN(C(=O)c2ncn3c2COC(c2ccc(F)cc2)C3)CC1 (stereo not shown) [NCGC00449810-01]	0.00	4.81	-21.88	0.0157	34.91	0.00	0.00
O=C(NCCC1=CCCCC1)C1CCN(C(=O)c2ncn3c2COC(c2ccc(F)cc2)C3)CC1 (stereo not shown) [NCGC00449811-01]	0.00	5.01	-41.16	0.00988	50.67	0.00	0.00
CCCCNC(=O)C1CCN(C(=O)c2ncn3c2COC(c2ccc(F)cc2)C3)CC1 (stereo not shown) [NCGC00449812-01]	0.00	4.91	-17.96	0.0124	23.59	0.00	0.00
O=C(NCc1ccccc1)C1CCN(C(=O)c2ncn3c2COC(c2ccc(F)cc2)C3)CC1 (stereo not shown) [NCGC00449813-01]	0.00	4.91	-31.52	0.0124	33.80	0.00	0.00
Cc1ccc(CNC(=O)C2CCN(C(=O)c3ncn4c3COC(c3ccc(F)cc3)C4)CC2)cc1 (stereo not shown) [NCGC00449814-01]	0.00	–	-11.84	–	17.69	0.00	0.00
CCc1ccc(CNC(=O)C2CCN(C(=O)c3ncn4c3COC(c3ccc(F)cc3)C4)CC2)cc1 (stereo not shown) [NCGC00449815-01]	0.00	–	-15.14	–	20.00	0.00	0.00
O=C(NCc1ccccc1F)C1CCN(C(=O)c2ncn3c2COC(c2ccc(F)cc2)C3)CC1 (stereo not shown) [NCGC00449818-01]	0.00	–	-20.04	–	27.35	0.00	0.00
O=C(NCc1ccc(F)cc1F)C1CCN(C(=O)c2ncn3c2COC(c2ccc(F)cc2)C3)CC1 (stereo not shown) [NCGC00449819-01]	0.00	–	-12.89	–	18.59	0.00	0.00
O=C(NCc1cc(F)cc(F)c1)C1CCN(C(=O)c2ncn3c2COC(c2ccc(F)cc2)C3)CC1 (stereo not shown) [NCGC00449820-01]	0.00	4.96	-30.45	0.0111	44.22	0.00	0.00
CC(NC(=O)C1CCN(C(=O)c2ncn3c2COC(c2ccc(F)cc2)C3)CC1)c1ccccc1 (stereo not shown) [NCGC00449824-01]	0.00	–	-12.35	–	0.00	0.00	0.00
CC(NC(=O)C1CCN(C(=O)c2ncn3c2COC(c2ccc(F)cc2)C3)CC1)c1ccc(F)cc1 (stereo not shown) [NCGC00449825-01]	0.00	–	0.00	–	0.00	0.00	0.00
O=C(NCCc1ccccc1)C1CCN(C(=O)c2ncn3c2COC(c2ccc(F)cc2)C3)CC1 (stereo not shown) [NCGC00449826-01]	0.00	–	-26.42	–	27.00	0.00	0.00
